From patent US20240262806A1, “INHIBITORS OF NLRP3” (PTC THERAPEUTICS, INC., priority 2021, published 2024)

System: NLRP3 inflammasome
Test: IL-1β Secretion Assay (NLRP3-dependent IL-1β secretion in PMA-differentiated THP-1 cells, nigericin activation, HTRF)
Assay type: cell-based
Details: Homo sapiens, THP-1, THP-1 cells, 100 ng/mL PMA 24 h, compound 20 h, 2.5 μM Nigericin 3 h; read-out: IC50 IL-1β Inhibition
In short: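 IL-1β release, quantified by HTRF after nigericin activation of the NLRP3 inflammasome, was the read-out. A logistic fit of percent inhibition gave IC50.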

Structure (SMILES) | IC50 [nM]
CN1CCC[C@@H](Nc2nnc(-c3ncc(Cl)cc3O)c3ccccc23)C1 [Compound I-81, (R)-5-Chloro-2-(4-((1-methylpiperidin-3-yl)amino)phthalazin-1-yl)pyridin-3-ol] | 10 to 100
[2H]C([2H])([2H])Oc1cc(O)c(-c2nnc(N[C@@H]3CCCN(CC)C3)n3cccc23)c(F)c1 [Compound I-514, (R)-2-(4-((1-ethylpiperidin-3-yl)amino)pyrrolo[1,2-d][1,2,4]triazin-1-yl)-3-fluoro-5-(methoxy-d3)phenol] | < 1
CCN1CCC[C@@H](Nc2nnc(-c3c(C)cc(C(F)(F)F)cc3O)c3cccn23)C1 [Compound I-606] | < 1
CN1CCC[C@H]1CNc1nnc(-c2ccc(C(F)(F)F)cc2O)c2ccncc12 [Compound I-112] | < 1
OCCN1CCC(CNc2nnc(-c3ccc(C(F)(F)F)cc3O)c3ccncc23)CC1 [Compound I-303] | 1 to 10
CN1CCC[C@@H](Nc2nnc(-c3ccc(C(F)(F)F)cc3-c3cccnc3)c3ccncc23)C1 [Compound I-240] | 100 to 300
CN1CCC[C@@H](Nc2nnc(-c3ccc(OC(F)F)cc3OC(F)F)c3cccn23)C1 [Compound I-612] | 1 to 10
CN1CCC[C@@H](Nc2nnc(-c3cccc(Cl)c3O)c3ccncc23)C1 [Compound I-76] | < 1
CN1CCC[C@@H](Nc2nnc(-c3ccc(C(F)(F)F)cc3C#N)c3ccncc23)C1 [Compound I-130] | 1 to 10
Oc1cc(OC(F)(F)F)ccc1-c1nnc(N[C@@H]2CCCNC2)n2cccc12 [Compound I-365] | 10 to 100
Oc1cc(C(F)(F)F)ccc1-c1nnc(N[C@@H]2CCCOC2)c2cnccc12 [Compound I-309] | 1 to 10
Oc1cc(C(F)(F)F)ccc1-c1nnc(N[C@@H]2CCCN(C3COC3)C2)c2cnccc12 [Compound I-271] | 1 to 10
CN1C[C@H](F)C[C@@H](Nc2nnc(-c3ccc(C(F)(F)F)cc3OC(F)F)c3c(F)ccn23)C1 [Compound I-439] | 1 to 10
Cc1cc2c(-c3c(O)cc(C4CC4)cc3F)nnc(N[C@@H]3CCCN(C)C3)n2n1 [Compound I-429] | < 1
CN1CCC[C@@H](Nc2nnc(-c3ccc(Br)cc3OCc3ccccc3)c3ccnn23)C1 [Compound I-545] | 10 to 100
CN1CCC[C@@H](Nc2nnc(-c3ccc(C(F)(F)F)cc3-c3cn[nH]c3)c3ccncc23)C1 [Compound I-193] | 10 to 100
[2H]C1(N2CCC[C@@H](Nc3nnc(-c4ccc(C(F)(F)F)cc4O)c4ccncc34)C2)CCC1 [Compound I-300] | < 1
CN1CCC[C@@H](Nc2nnc(-c3ccc(C(F)(F)F)cc3O)c3cscc23)C1 [Compound I-250] | < 1
Oc1cc(C(F)(F)F)ccc1-c1nnc(N[C@H]2CNC[C@@H](O)C2)c2ccccc12 [Compound I-53] | 1 to 10
CN1CCC[C@@H](Nc2nnc(-c3ccc(C4=CCOC4)cc3O)c3ccccc23)C1 [Compound I-57] | 1 to 10
Oc1cc(C(F)(F)F)ccc1-c1nnc(N[C@@H]2CCCN(C3CC(CC(F)F)C3)C2)c2cnccc12 (stereo partly shown) [Compound I-257] | 1 to 10
CN1C[C@H](F)C[C@@H](Nc2nnc(-c3ccc(OC(F)F)cc3OC(F)F)c3cccn23)C1 [Compound I-615] | 10 to 100
CCN1CCC[C@@H](Nc2nnc(-c3ccc(OC(F)(F)F)cc3O)c3c(F)ccn23)C1 [Compound I-604] | 1 to 10
CN1CCC[C@@H](Nc2nnc(-c3c(O)cccc3C#N)c3ccncc23)C1 [Compound I-140] | 1 to 10

Structure (SMILES) | IC50 [nM]
Cc1ccc(-c2nnc(N[C@@H]3CCCN(C)C3)n3cccc23)c(C(F)(F)F)c1 [Compound I-533] | 1 to 10
Cc1ccc(-c2nnc(N[C@@H]3CCCN(C)C3)n3cccc23)c(C(F)F)c1 [Compound I-425, 1-[2-(Difluoromethyl)-4-methyl-phenyl]-N-[(3R)-1-methyl-3-piperidyl]pyrrolo[1,2-d][1,2,4]triazin-4-amine] | 10 to 100
Cc1cc(C(F)(F)F)cc(F)c1-c1nnc(N[C@@H]2CCCN(C)C2)c2cnccc12 [Compound I-222] | 1 to 10
Cc1cc2c(-c3c(O)cc(Cl)cc3F)nnc(N[C@@H]3CCCN(C)C3)n2n1 [Compound I-455] | < 1
C[C@]1(O)C[C@@H](Nc2nnc(-c3ccc(Br)cc3O)c3cncn23)C1 [Compound I-627] | 1 to 10
C[C@]1(O)C[C@@H](Nc2nnc(-c3ccc(C(F)(F)F)cc3OC(F)F)c3cccn23)C1 [Compound I-537] | 1 to 10
COc1ccc(-c2nnc(N[C@@H]3CCCN(C)C3)c3cnccc23)c(OC(F)F)c1 [Compound I-171] | < 1
CN1CCC[C@@H](Nc2nnc(-c3ccc(C#N)cc3OC(F)F)c3ccncc23)C1 [Compound I-167] | 10 to 100
Oc1cc(C(F)(F)F)ccc1-c1nnc(NC2CCNC2)c2ccccc12 (stereo not shown) [Compound I-6] | 10 to 100
CN1CCCC[C@H](Nc2nnc(-c3ccc(C(F)(F)F)cc3O)c3ccncc23)C1 [Compound I-186] | 10 to 100
C[C@@H](O)CNc1nnc(-c2ccc(C(F)(F)F)cc2C(F)(F)F)c2cccn12 [Compound I-492] | 1 to 10
Cc1cc2c(-c3ccc(C(F)(F)F)cc3C(F)(F)F)nnc(N[C@@H]3CCCN(C)C3)n2n1 [Compound I-382] | 1 to 10
Cc1cc(O)c(-c2nnc(N[C@@H]3CCCN(CCO)C3)n3cccc23)c(F)c1 [Compound I-341] | 1 to 10
Cc1cc(C(F)(F)F)cc(O)c1-c1nnc(N[C@@H]2CCCN(C)C2)n2cccc12 [Compound I-431] | < 1
CN1CCC[C@@H](Nc2nnc(-c3c(O)cc(Cl)cc3F)c3ccncc23)C1 [Compound I-170] | < 1
Cc1cccc(O)c1-c1nnc(N[C@@H]2CCCN(C)C2)c2ccccc12 [Compound I-50] | < 1
Oc1cc(C(F)(F)F)ccc1-c1nnc(N[C@@H]2CCCCNC2)c2cnccc12 [Compound I-261] | 1 to 10
Oc1cc(Cl)cc(F)c1-c1nnc(NC2CCCOC2)n2cccc12 (stereo not shown) [Compound I-608] | 10 to 100
CN1CCN(C)CC(Nc2nnc(-c3ccc(C(F)(F)F)cc3O)c3ccncc23)C1 [Compound I-264] | 10 to 100
OCCN1CCC[C@@H](Nc2nnc(-c3c(O)cc(Cl)cc3F)c3cccn23)C1 [Compound I-482] | 1 to 10
CN1C[C@H](F)C[C@@H](Nc2nnc(-c3ccc(C(F)(F)F)cc3O)c3ccncc23)C1 [Compound I-280] | < 1
CN1CCC[C@@H](Nc2nnc(-c3cccc(C4CC4)c3O)c3ccncc23)C1 [Compound I-77] | < 1
CCN1CCC[C@H]1CNc1nnc(-c2ccc(C(F)(F)F)cc2O)c2ccncc12 [Compound I-113] | < 1
CCN1CCC[C@@H](Nc2nnc(-c3ccc(Br)cc3O)c3cccn23)C1 [Compound I-564] | < 1

Structure (SMILES) | IC50 [nM]
COc1ccc(-c2nnc(N[C@@H]3CCCN(C)C3)n3cccc23)c(OC(F)F)c1 [Compound I-471] | 1 to 10
Cc1cc(O)c(-c2nnc(N[C@H]3C[C@@](C)(O)C3)n3cccc23)c(F)c1 [Compound I-466] | 1 to 10
Cc1ccc(-c2nnc(N[C@@H]3CCCN(C)C3)c3ccccc23)c(O)c1F [Compound I-51] | < 1
CN1CCC[C@@H](Nc2nnc(-c3ccc(C(F)(F)F)cc3-c3ccccc3)c3ccncc23)C1 [Compound I-202] | 10 to 100
CN1CCC[C@@H](Nc2nnc(-c3ccc(Cl)cc3C(F)(F)F)c3ccncc23)C1 [Compound I-289] | 1 to 10
CN1CCC[C@@H](Nc2nnc(-c3ccc(C(F)(F)F)cc3)c3ccncc23)C1 [Compound I-166] | 1 to 10
COc1ccc(-c2nnc(N[C@@H]3CCCN(C)C3)c3cc(C)nn23)c(O)c1 [Compound I-351] | 10 to 100
Cc1noc2c(-c3ccc(C(F)(F)F)cc3O)nnc(N[C@@H]3CCCN(C)C3)c12 [Compound I-255, 2-[3-methyl-4-[[(3R)-1-methyl-3-piperidyl]amino]isoxazolo[4,5-d]pyridazin-7-yl]-5-(trifluoromethyl)phenol] | 1 to 10
COc1cc(C(F)(F)F)ccc1-c1nnc(NC2CC3CCC(C3)N2C)c2cnccc12 (stereo not shown) [Compound I-213] | 100 to 300
COc1ccc(-c2nnc(N[C@@H]3CCCN(C)C3)n3nc(C)cc23)c(C(F)(F)F)c1 [Compound I-381] | 1 to 10
Oc1cc(C2CC2)cc(F)c1-c1nnc(N[C@@H]2CCCN(CC(F)F)C2)n2cccc12 [Compound I-510] | 10 to 100
CN1CCC[C@@H](Nc2nnc(-c3cccc(F)c3O)c3ccccc23)C1 [Compound I-28] | 10 to 100
C[C@@H](O)CNc1nnc(-c2ccc(C(F)(F)F)cc2O)c2cccn12 [Compound I-588] | 10 to 100
C[C@]1(O)C[C@@H](Nc2nnc(-c3ccc(C(F)(F)F)cc3O)c3c(F)ccn23)C1 [Compound I-593] | 1 to 10
CN1CCC[C@@H](Nc2nnc(-c3ccc(C(F)(F)F)cc3O)c3ccncc23)C1 [Compound I-7] | < 1
Cc1cc(O)c(-c2nnc(N[C@@H]3CCCN(CCOC(F)F)C3)n3cccc23)c(F)c1 [Compound I-344] | < 1
Oc1cc(C(F)(F)F)ccc1-c1nnc(NC2CNCCOC2)c2ccncc12 (stereo not shown) [Compound I-230] | 10 to 100
CN1C[C@H](O)C[C@@H](Nc2nnc(-c3ccc(C(F)(F)F)cc3OC(F)F)c3cccn23)C1 [Compound I-385, (3R,5R)-5-[[1-[2-(Difluoromethoxy)-4-(trifluoromethyl)phenyl]pyrrolo[1,2-d][1,2,4]triazin-4-yl]amino]-1-methyl-piperidin-3-ol] | 100 to 300
OCCN1CCC[C@@H](Nc2nnc(-c3ccc(OC(F)F)cc3OC(F)F)c3cccn23)C1 [Compound I-614] | 1 to 10
CN1CCC[C@@H](Nc2nnc(-c3ccc(C(F)(F)F)cc3O)c3c2CCC3(C)C)C1 [Compound I-46] | 10 to 100
CN1CCC[C@@H](Nc2nnc(-c3ccc(Cl)cc3O)c3cnccc23)C1 [Compound I-59] | < 1
Oc1cc(Cl)cc(F)c1-c1nnc(NCC2CCCO2)n2cccc12 (stereo not shown) [Compound I-621] | 10 to 100
